Here are results for five compounds from BindingDB's records for patent US20240116873 (JIANGSU CHIATAI QINGJIANG PHARMACEUTICAL CO., LTD., 2024).

Assay [1] deals with T1, Solute carrier family 22 member 12 (Homo sapiens, UniProt Q96S37).
T1 sequence (Q96S37 whole entry): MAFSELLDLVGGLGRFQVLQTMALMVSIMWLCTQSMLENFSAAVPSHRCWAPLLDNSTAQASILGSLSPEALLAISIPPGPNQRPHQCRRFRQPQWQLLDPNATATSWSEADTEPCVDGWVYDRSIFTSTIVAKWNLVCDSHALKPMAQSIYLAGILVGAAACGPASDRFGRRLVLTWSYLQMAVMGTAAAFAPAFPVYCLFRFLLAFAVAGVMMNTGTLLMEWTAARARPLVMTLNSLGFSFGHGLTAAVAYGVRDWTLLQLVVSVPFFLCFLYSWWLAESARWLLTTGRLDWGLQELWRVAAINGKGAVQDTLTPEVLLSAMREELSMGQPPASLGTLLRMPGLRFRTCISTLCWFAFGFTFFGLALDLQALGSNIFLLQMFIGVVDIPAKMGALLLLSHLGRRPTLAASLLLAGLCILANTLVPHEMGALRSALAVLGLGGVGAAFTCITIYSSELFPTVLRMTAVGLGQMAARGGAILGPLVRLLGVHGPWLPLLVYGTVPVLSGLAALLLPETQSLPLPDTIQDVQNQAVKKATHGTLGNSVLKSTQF
Put plainly: Inhibitory Assay.

Assay [2] concerns the target T2, Solute carrier family 22 member 11 (Homo sapiens, UniProt Q9NSA0).
T2 sequence (Q9NSA0 whole entry): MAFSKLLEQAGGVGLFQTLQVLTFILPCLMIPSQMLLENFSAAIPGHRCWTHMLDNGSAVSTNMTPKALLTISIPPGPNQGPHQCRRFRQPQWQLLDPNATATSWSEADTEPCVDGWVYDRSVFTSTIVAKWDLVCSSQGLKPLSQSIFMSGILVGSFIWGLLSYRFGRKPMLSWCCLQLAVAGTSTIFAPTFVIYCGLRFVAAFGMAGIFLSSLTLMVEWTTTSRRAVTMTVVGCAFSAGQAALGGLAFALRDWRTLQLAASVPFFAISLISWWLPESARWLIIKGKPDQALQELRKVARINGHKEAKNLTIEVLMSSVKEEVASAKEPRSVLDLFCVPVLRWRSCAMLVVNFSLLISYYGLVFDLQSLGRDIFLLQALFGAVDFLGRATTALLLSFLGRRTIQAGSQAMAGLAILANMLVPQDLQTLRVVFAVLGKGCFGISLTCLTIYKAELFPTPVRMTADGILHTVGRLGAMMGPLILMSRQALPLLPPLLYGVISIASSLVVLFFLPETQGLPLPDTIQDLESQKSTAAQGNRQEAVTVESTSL
Put plainly: Inhibitory Assay.

SMILES strings stand for the structures.

As to `Cc1ccc2nccc(SC(C)(C)C(=O)NS(C)(=O)=O)c2c1` [US20240116873, Compound A], in assay [1], the IC50 (usually the concentration that gives 50% inhibition) stood at 3.15 µM.

Compound `CC(C)(Sc1ccnc2ccc(F)cc12)C(=O)NS(C)(=O)=O` [US20240116873, Compound B] registered an IC50 in assay [1] of 2.79 µM.

In assay [1], `CCS(=O)(=O)NC(=O)C(C)(C)Sc1ccnc2ccc(Br)cc12` [US20240116873, Compound C] showed an IC50 of 1.18 µM.

For the compound `CC(C)(Sc1ccnc2ccc(C(F)(F)F)cc12)C(=O)NS(C)(=O)=O` [US20240116873, Compound D], in assay [2], the midpoint of inhibition, the IC50, lay at 83.8 µM.

For `CC(C)(Sc1ccnc2ccc(Br)cc12)C(=O)NS(=O)(=O)c1cccs1` [US20240116873, Compound E], in assay [1], the IC50 was 3.42 µM.
